Data reported in PubChem BioAssay (NCI).
“And” between values parts separate entries of the source, which are not always exact repeats. Equal entries are not always repeated.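 Briefly, cells in 96-well plates were exposed to five compound concentrations for 48 h, and endpoints were estimated by linear interpolation. GI50 is the concentration that inhibits growth by half. The concentration for full growth arrest is given as TGI.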

What was measured:
Experiment in all cases: NCI anticancer screen, dose series, 48 h
HT29 colon = tested on: HT29 colon
ACHN renal = tested on: ACHN renal
NCI-H522 lung = tested on: NCI-H522 lung
SF-268 CNS = tested on: SF-268 CNS
DU-145 prostate = tested on: DU-145 prostate
CCRF-CEM leukemia = tested on: CCRF-CEM leukemia
T-47D breast = tested on: T-47D breast

Compound	GI50 (HT29 colon)	TGI (HT29 colon)	GI50 (ACHN renal)	TGI (ACHN renal)	GI50 (NCI-H522 lung)	TGI (NCI-H522 lung)	GI50 (SF-268 CNS)	TGI (SF-268 CNS)	GI50 (DU-145 prostate)	TGI (DU-145 prostate)	GI50 (CCRF-CEM leukemia)	TGI (CCRF-CEM leukemia)	GI50 (T-47D breast)	TGI (T-47D breast)
CCOC1Oc2ccccc2C(=O)/C1=C\Nc1ccc(C(=O)O)c(O)c1 (stereo unspecified)	28.7 µM	72.7 µM	18.3 µM	44.3 µM	> 100 µM	> 100 µM	26.1 µM	80.8 µM	34.1 µM	> 100 µM	–	–	–	–
O=C(O)CC(S)C(=O)O.[Li+].[Sb] (stereo unspecified)	88.6 µM	> 100 µM	> 100 µM	> 100 µM	–	–	> 100 µM	> 100 µM	> 100 µM	> 100 µM	57 µM	> 100 µM	> 100 µM	> 100 µM
COc1ccc2[nH]cc(C3(c4c[nH]c5ccc(OC)cc45)C(=O)Nc4ccc(Cl)cc43)c2c1	–	–	3.71 µM	21.9 µM	–	–	4.81 µM	57.9 µM	4.73 µM	29.2 µM	3.67 µM	> 100 µM	4.93 µM	> 100 µM
O=C(CS(=O)c1nc2ccccc2nc1-c1ccccc1)Nc1ccc(Cl)cc1 (stereo unspecified)	48.5 µM	> 100 µM	21.4 µM	51.1 µM	18.6 µM	60.1 µM	24.9 µM	88.2 µM	25.7 µM	> 100 µM	23.4 µM	56.8 µM	32.7 µM	> 100 µM
CC(=O)OCC1OC([S-])C(OC(C)=O)C(OC(C)=O)C1OC(C)=O.[Au+].c1ccc(CN2[CH-]N(Cc3ccccc3)C(c3ccccc3)=C2c2ccccc2)cc1	3.38 µM and 1.02 µM	12.6 µM and 4.47 µM	1.87 µM and 0.674 µM	3.62 µM and 2.72 µM	2.03 µM and 0.551 µM	4.7 µM and 1.56 µM	2.43 µM and 0.458 µM	6.11 µM and 1.78 µM	2.86 µM and 0.509 µM	8.09 µM and 3.59 µM	2.65 µM and 0.283 µM	13.8 µM and 9.52 µM	1.72 µM and 0.417 µM	3.81 µM and 2.75 µM
CC1OC(OC2C(O)C(OCCc3ccc(O)c(O)c3)OC(CO)C2OC(=O)/C=C/c2ccc(O)c(O)c2)C(O)C(O)C1O (stereo unspecified)	–	–	18.9 µM	37 µM	> 100 µM	> 100 µM	> 100 µM	> 100 µM	13.5 µM	27.4 µM	–	–	> 100 µM	> 100 µM
C=C1C(=O)O[C@H]2[C@H]1CC/C(CNC(=O)C(C)c1ccc(CC(C)C)cc1)=C\CC[C@@]1(C)O[C@@H]21 (stereo partly specified)	1.79 µM	3.66 µM	1.45 µM	2.76 µM	1.63 µM	3.5 µM	1.74 µM	3.58 µM	1.49 µM	2.85 µM	0.551 µM	7.49 µM	1.78 µM	4.79 µM
COc1cc2c(cc1OC)-c1c(c3ccc([N+](=O)[O-])cc3c(=O)n1CCCN=[N+]=[N-])C2=O	> 100 µM	> 100 µM	19.4 µM	> 100 µM	11.7 µM	> 100 µM	41.7 µM	> 100 µM	86.1 µM	> 100 µM	–	–	> 100 µM	> 100 µM
CN(C)c1ccc2cc3c(cc2c1)Oc1ccccc1N3.[Cl][Zn][Cl]	4.09 µM	> 100 µM	1.64 µM	3.22 µM	1.94 µM	4.94 µM	13.6 µM	27.2 µM	8.24 µM	20.9 µM	3.26 µM	9.71 µM	–	–
CC[C@H](C)[C@H](NC(=O)[C@H]1CCCCN1C)C(=O)N(C)[C@H](C[C@@H](OC(C)=O)c1nc(C(=O)NC23C4C5C2C2C3C4C52C(=O)OC)cs1)C(C)C (stereo partly specified)	0.00114 µM and 0.0025 µM	0.0612 µM and 0.0493 µM	0.0189 µM and 0.0025 µM	4.03 µM	0.000331 µM and < 0.0025 µM	–	0.00279 µM and 0.0025 µM	> 25 µM	0.00113 µM and 0.0025 µM	0.031 µM	0.0027 µM and 0.0025 µM	3.33 µM	0.00275 µM	–
C#Cc1cccc(Nc2ncnc3ccc(-c4cnc(N)nc4)cc23)c1	2.36 µM	14.6 µM	0.542 µM	10.3 µM	2.11 µM	11.8 µM	1.79 µM	20.6 µM	0.744 µM	14.6 µM	2.6 µM	> 100 µM	0.664 µM	4.62 µM
CCCCCCCCCCCCSC1=CC(=O)C=CC1=O	27.1 µM	> 50 µM	9.13 µM	> 42.4 µM	0.191 µM	0.763 µM	2.24 µM	10.4 µM	15.1 µM	> 50 µM	0.143 µM	4.17 µM	0.893 µM	3.58 µM
O=C(C(=O)c1cccnc1)c1cccnc1	> 100 µM	> 100 µM	> 100 µM	> 100 µM	> 100 µM	> 100 µM	> 100 µM	> 100 µM	> 100 µM	> 100 µM	> 100 µM	> 100 µM	> 100 µM	> 100 µM
O=c1[nH][nH]c(=O)c2c(O)c(-c3ccccc3)ncc12	38.4 µM and 177 µM	674 µM	182 µM	845 µM	42.3 µM and 70.2 µM	376 µM	35 µM and 71.3 µM	> 1000 µM	58.5 µM and 144 µM	> 1000 µM	35.2 µM and 55.1 µM	894 µM	27.6 µM and 60.5 µM	95.5 µM and 843 µM
CCN(CC)CCOc1ccc(NC(=O)C(C(C)C)N2C(=O)/C(=C/c3ccc(Br)cc3)SC2=S)cc1 (stereo unspecified)	2.88 µM	8.51 µM	1.78 µM	3.25 µM	2.03 µM	4.55 µM	2.27 µM	5.85 µM	4.44 µM	14.7 µM	2.82 µM	9.52 µM	3.63 µM	19 µM
COC1/C=C/OC2(C)Oc3c(C)c(O)c4c(O)c(c(/C=N/N(c5ccccc5)c5ccccc5)c(O)c4c3C2=O)NC(=O)C(C)=C/C=C/C(C)C(O)C(C)C(O)C(C)C(OC(C)=O)C1C (stereo unspecified)	1.1 µM	2.63 µM	1.75 µM	7.13 µM	0.983 µM	2.19 µM	1.93 µM	8.51 µM	2.37 µM	7.96 µM	1.58 µM	6.62 µM	1.82 µM	7.87 µM
O=C(O)C1C2C=CC(O2)C1C(=O)NCc1ccncc1 (stereo unspecified)	–	> 100 µM	–	> 100 µM	–	> 100 µM	–	> 100 µM	–	> 100 µM	–	> 100 µM	–	> 100 µM
